Series [1] concerns Cerebral cortex. The experiment in a line: Neuroprotective activity against OGD/R induced injury in male Wistar rat brain cortical slices assessed as effect on LDH release at 10 uM by spectrophometric analysis. The format is functional, tissue-based.
The test system of series [2] is Cerebral cortex. The experiment in a line: Neuroprotective activity against OGD/R induced injury in male Wistar rat brain cortical slices assessed as reversal of tissue water gain at 0.01 to 1 uM. The format is functional, tissue-based. The conditions noted are these: dose 0.01-1 µM.
For series [3], the system named is Cerebral cortex. Kind of series: Neuroprotective activity against OGD/R induced injury in male Wistar rat brain cortical slices assessed as effect on tissue edema at 10 uM. It is filed as functional, tissue-based.
The subject of series [4] is Cerebral cortex. Kind of series: Neuroprotective activity against OGD/R induced injury in male Wistar rat brain cortical slices assessed as reversal of LDH release at 0.01 to 1 uM by spectrophometric analysis. The conditions noted are these: dose 0.01-1 µM. The format is functional, tissue-based. A general note: LDH leaks from cells whose membrane has failed.
In series [5] the test system is Cerebral cortex. The experiment in a line: Neuroprotective activity against OGD/R induced injury in male Wistar rat brain cortical slices assessed as effect on LDH release at 1 uM by spectrophometric analysis. The format is functional, tissue-based.
The nature of series [6]: Permeability of the compound assessed as membrane retention rate by PAMPA method. It is filed as ADME.
Series [7] is described as follows: Apparent permeability of the compound in PBS buffer at pH 7.4 incubated for 4 hrs under shaking condition by LC-UV-MS analysis. The format is ADME. The conditions noted are these: not told.
In series [8] the test system is SH-SY5Y. The experiment in a line: Inhibition of K channel in human SH-SY5Y cells assessed as reduction in steady-state component of KDR current at 50 uM under +60mV by whole-cell patch clamp assay relative to control. It is filed as cell-based.
Series [9] has as its system SH-SY5Y. Kind of series: Inhibition of Na channel in human SH-SY5Y cells assessed as change in channel activation at 50 uM under -30 to + 20 mV by whole-cell patch clamp assay. The format is cell-based. Background: Patch clamp records ionic current or voltage across a cell membrane.
The subject of series [10] is SH-SY5Y. The experiment in a line: Inhibition of Na channel in human SH-SY5Y cells assessed as reduction in current amplitude at 50 uM by whole-cell patch clamp assay relative to control. The format is cell-based.
In series [11] the test system is Cerebral cortex. Kind of series: Neuroprotective activity against OGD/R induced injury in male Wistar rat brain cortical slices assessed as reversal of LDH release at 0.01 to 10 uM by spectrophometric analysis. The conditions noted are these: dose 0.01-10 µM. The format is functional, tissue-based.
Series [12] has as its system Cerebral cortex. The experiment in a line: Neuroprotective activity against OGD/R induced injury in male Wistar rat brain cortical slices assessed as reversal of tissue water gain at 0.01 to 10 uM. It is filed as functional, tissue-based. The conditions noted are these: dose 0.01-10 µM.
Series [13] deals with SH-SY5Y. Kind of series: Inhibition of K channel in human SH-SY5Y cells assessed as change in channel activation at 50 uM under +25 to +55 mV by whole-cell patch clamp assay. The format is cell-based.
Series [14] concerns SH-SY5Y. The experiment in a line: Inhibition of Na channel in human SH-SY5Y cells assessed as maximum conductance at 50 uM by whole-cell patch clamp assay relative to control. The format is cell-based.
For series [15], the system named is SH-SY5Y. Kind of series: Inhibition of Na channel in human SH-SY5Y cells assessed as normalized peak current density at 50 uM under -25 mV by whole-cell patch clamp assay. It is filed as cell-based.
In series [16] the test system is SH-SY5Y. Kind of series: Inhibition of K channel in human SH-SY5Y cells assessed as decrease in maximum conductance at 50 uM under +25 to +55 mV by whole-cell patch clamp assay relative to control. It is filed as cell-based.
Series [17] deals with Cerebral cortex. The experiment in a line: Neuroprotective activity against OGD/R induced injury in male Wistar rat brain cortical slices assessed as reversal of tissue water gain at 0.001 to 10 uM. The conditions noted are these: dose 0.001-10 µM. The format is functional, tissue-based.
In series [18] the test system is Cerebral cortex. The experiment in a line: Neuroprotective activity against OGD/R induced injury in male Wistar rat brain cortical slices assessed as reversal of LDH release at 0.001 to 10 uM by spectrophometric analysis. It is filed as functional, tissue-based. The conditions noted are these: dose 0.001-10 µM.

Each structure is given as a SMILES string. Calls of active or inactive are those of the source. The calls are words filed in the database; no cut-off is given here.

Regarding `N/C(=N\c1nc2ccc(OC(F)(F)F)cc2s1)N1CCCSc2cc(OC(F)(F)F)ccc21`, the result in series [1], in [3], in [4] and in series [5] was inactive. In addition, in series [2], the outcome was Active.

Take `CC(C)NCC(O)COc1cccc2ccccc12` (stereo not given) [PROPRANOLOL]: the R% in [6] turned out to be 10.73%. Besides, in [7], the apparent permeability coefficient (Papp) (commonly a coefficient for how fast a substance crosses the barrier) at 4 h was 17.2 ×10⁻⁶ cm/s.

On to `N/C(=N\c1nc2ccccc2s1)N1CCCSc2ccccc21`, for which, in series [6], the R% came to 28.24%. Also, in [7], the Papp at 4 h turned out to be 17 ×10⁻⁶ cm/s. The inhibition (usually the percentage by which the read-out fell short of the control) in series [8] came to 28.4%; in [10], 28.4%; in [14], 28.4%; in [16], 35%. The inhibition result in series [9], in series [13] and in [15] was “Active” throughout. In addition, the result in [11] and in series [12] was Active.

Take `N/C(=N\c1nc2ccc([N+](=O)[O-])cc2s1)N1CCCSc2cc([N+](=O)[O-])ccc21`: the outcome in [17] and in series [18] was inactive.

The record behind these values is ChEMBL document CHEMBL6127031, “Novel multitarget directed ligands inspired by riluzole: A serendipitous synthesis of substituted benzo[b][1,4]thiazepines potentially useful as neuroprotective agents” (Bioorg Med Chem, 2024).
